# Reference: paper PMC9430360 (Microbiology Spectrum, 2022)
# What was measured:
# [1] = Cytotoxicity assay (CytoTox 96, lactate dehydrogenase release); format: cell-based; details: human, 293T cells, up to 100 μM
# Protocol: To determine the cytotoxicity of the compounds, 70 to 80% confluent 293T cells in a 96-well plate were incubated with serial dilutions of each compound (up to 100 μM) for 5 h. Cell cytotoxicity was determined by a CytoTox 96 nonradioactive assay kit (Promega, Madison, WI) by measuring a cytosolic enzyme lactate dehydrogenase, which is released upon cell lysis, following the manufacturer’s instructions, and the 50% cytotoxic concentration (CC50) value for each compound was calculated using GraphPad Prism software. The nonspecific cytotoxic effects of these compounds were also reported previously ([30], [31], [40], [43], [44]).
# GI.3P-GI.2 TX1 3CLpro = GI.3P-GI.2 TX1 3CLpro (Rabbit hemorrhagic disease virus 2, UniProt A0A7M4BDB7); test: FRET assay, 3CLpro of GI.3P-GI.2 TX1 strain; format: biochemical, GI.3P-GI.2 (RHDV2/b); details: 30 min preincubation with 3CLpro, 30 min with substrate, mean ± SEM, at least three experiments
# 3CLpro of GI.3P-GI.2 TX1 = target: T1, 3CLpro of GI.3P-GI.2 TX1 (Rabbit hemorrhagic disease virus 2, UniProt A0A7M4BDB7); test: cell-based; parameters: species or system GI.3P-GI.2 (RHDV2/b)
# T1 sequence (A0A7M4BDB7 1109-1251): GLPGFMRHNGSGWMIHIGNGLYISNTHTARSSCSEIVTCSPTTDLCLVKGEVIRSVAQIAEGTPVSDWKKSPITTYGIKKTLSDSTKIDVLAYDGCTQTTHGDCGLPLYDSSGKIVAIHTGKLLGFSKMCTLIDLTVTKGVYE
# GI.1c/RHDV FRG 3CLpro = GI.1c/RHDV FRG 3CLpro (Rabbit hemorrhagic disease virus, UniProt P27410); test: FRET assay, 3CLpro of GI.1c/RHDV FRG strain; format: biochemical; details: 30 min preincubation with 3CLpro, 30 min with substrate, mean ± SEM, at least three experiments, read-out: IC50 GI.Ic/RHDV FRG
# GII.1/EBHSV G104 3CLpro = GII.1/EBHSV G104 3CLpro (European brown hare syndrome virus, UniProt Q96725); test: FRET assay, 3CLpro of GII.1/EBHSV G104 strain; format: biochemical
# FIP = tested on: FIP; parameters: method as in PMID 27027316, PMID 28901812; details: cited from earlier work
# FIPV 3CLpro = tested on: FIPV 3CLpro; parameters: method as in PMID 30342822; details: FRET assay; read-out: IC50 against FIPV 3CLpro; cited from earlier work
# murine norovirus = tested on: murine norovirus; parameters: method as in PMID 25761614; details: intestinal tracts of mice; cited from earlier work
# Sequence of GII.1/EBHSV G104 3CLpro (Q96725 1102-1244 limits assumed): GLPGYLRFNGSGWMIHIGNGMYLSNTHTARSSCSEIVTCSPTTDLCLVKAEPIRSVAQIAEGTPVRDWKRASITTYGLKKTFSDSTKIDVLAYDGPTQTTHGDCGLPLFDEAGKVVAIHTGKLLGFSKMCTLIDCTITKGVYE
# Sequence of GI.1c/RHDV FRG 3CLpro (P27410 1109-1251 limits assumed): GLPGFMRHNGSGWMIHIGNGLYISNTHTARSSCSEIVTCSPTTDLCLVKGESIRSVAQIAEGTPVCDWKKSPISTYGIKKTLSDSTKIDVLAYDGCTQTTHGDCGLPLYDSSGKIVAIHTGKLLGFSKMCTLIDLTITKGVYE
Compound,CC50 at 5 h [1],IC50 (GI.3P-GI.2 TX1 3CLpro),EC50 (3CLpro of GI.3P-GI.2 TX1),IC50 (GI.1c/RHDV FRG 3CLpro),IC50 (GII.1/EBHSV G104 3CLpro),in vivo efficacy in cats with FIP (FIP),IC50 (FIPV 3CLpro),"in vivo efficacy, murine norovirus replication (murine norovirus)"
O=C[C@@H](C[C@@H]1CCNC1=O)NC(=O)[C@H](CC1CCCCC1)NC(=O)OCc1ccccc1 [GC543],> 100000 nM,120 ± 70 nM,550 ± 60 nM,90 ± 30 nM,70 ± 10 nM,–,–,–
O=C(N[C@@H](CC1CCCCC1)C(=O)N[C@H](C[C@@H]1CCNC1=O)C(=O)C(=O)NC1CC1)OCc1cccc(Cl)c1 [GC591],> 100000 nM,730 ± 270 nM,9800 ± 1260 nM,590 ± 40 nM,430 ± 70 nM,–,–,–
CC(C)C[C@H](NC(=O)OCc1ccccc1)C(=O)N[C@H](C[C@@H]1CCNC1=O)C(O)S(=O)(=O)O (stereo partly shown) [GC376],> 100000 nM,1390 nM,5350 ± 140 nM,1210 nM,1000 nM,reduced viral replication and improved survival,500 nM,–
O=C[C@@H](C[C@@H]1CCNC1=O)NC(=O)[C@H](CC1CCCCC1)NC(=O)OCc1cccc(Cl)c1 [GC583],> 100000 nM,100 ± 80 nM,460 ± 50 nM,80 ± 20 nM,50 ± 10 nM,–,–,significantly decreasing murine norovirus replication in the intestinal tracts of mice without toxicity
CC(C)CC(NC(=O)C(Cc1cccc2ccccc12)NC(=O)OCc1ccccc1)C(=O)NC(C=O)CC1CCNC1=O (stereo not shown) [NPI52],> 100000 nM,570 ± 360 nM,4000 ± 430 nM,310 ± 20 nM,300 ± 90 nM,–,–,–
